From patent US20260146035A1, “FUSED BICYCLIC COMPOUNDS AND THEIR USE AS MER AND AXL INHIBITORS” (DONG-A ST CO., LTD., priority 2022, published 2026) come the findings set out here.

In assay [1] the target is T1, human TYRO3 (455-end) (Homo sapiens, UniProt Q06418).
T1 construct: TYRO3 (455-end); purchased SignalChem, Canada
T1 sequence (Q06418 455-890 limits assumed): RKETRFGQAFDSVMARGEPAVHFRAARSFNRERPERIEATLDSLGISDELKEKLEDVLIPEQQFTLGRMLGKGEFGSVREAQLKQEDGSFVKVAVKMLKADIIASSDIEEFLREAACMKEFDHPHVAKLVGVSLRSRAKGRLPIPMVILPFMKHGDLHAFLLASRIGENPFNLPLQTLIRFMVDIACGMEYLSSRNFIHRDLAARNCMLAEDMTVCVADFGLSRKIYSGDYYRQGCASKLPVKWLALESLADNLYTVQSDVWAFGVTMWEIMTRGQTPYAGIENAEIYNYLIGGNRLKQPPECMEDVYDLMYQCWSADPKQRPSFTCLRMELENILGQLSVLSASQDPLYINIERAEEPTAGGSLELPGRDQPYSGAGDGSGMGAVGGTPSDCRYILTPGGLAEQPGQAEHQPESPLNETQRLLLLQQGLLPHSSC
The assay can be described thus: HTRF kinase activity biochemical assay, TYRO3. The settings on record: 10 μM ATP, 30 minutes pre-incubation; read-out: HTRF TYRO IC50.

The target in assay [2] is T2, human AXL (473-end) (Homo sapiens, UniProt P30530).
T2 construct: human AXL (473-end); purchased SignalChem, Canada
T2 sequence (P30530 473-894 limits assumed): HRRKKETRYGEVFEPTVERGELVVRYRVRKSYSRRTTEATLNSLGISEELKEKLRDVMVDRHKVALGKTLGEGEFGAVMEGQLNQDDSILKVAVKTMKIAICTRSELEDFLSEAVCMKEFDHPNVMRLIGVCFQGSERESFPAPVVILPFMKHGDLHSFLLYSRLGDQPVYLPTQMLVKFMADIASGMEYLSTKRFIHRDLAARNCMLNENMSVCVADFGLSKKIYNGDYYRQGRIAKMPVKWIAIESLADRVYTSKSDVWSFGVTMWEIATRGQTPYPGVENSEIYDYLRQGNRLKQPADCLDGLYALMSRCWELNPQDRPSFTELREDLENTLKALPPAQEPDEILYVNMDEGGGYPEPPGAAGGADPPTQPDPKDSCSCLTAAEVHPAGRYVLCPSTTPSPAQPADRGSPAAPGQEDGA
In words: HTRF kinase activity biochemical assay, AXL. The settings on record: 10 μM ATP, 30 minutes pre-incubation. (Time-resolved FRET reads energy transfer from a long-lived donor to a nearby acceptor.)

For assay [3], the target named is T3, human MER (528-end) (Homo sapiens, UniProt Q12866).
T3 construct: human MER (528-end); purchased Camnabio, Japan
T3 sequence (Q12866 528-999 limits assumed): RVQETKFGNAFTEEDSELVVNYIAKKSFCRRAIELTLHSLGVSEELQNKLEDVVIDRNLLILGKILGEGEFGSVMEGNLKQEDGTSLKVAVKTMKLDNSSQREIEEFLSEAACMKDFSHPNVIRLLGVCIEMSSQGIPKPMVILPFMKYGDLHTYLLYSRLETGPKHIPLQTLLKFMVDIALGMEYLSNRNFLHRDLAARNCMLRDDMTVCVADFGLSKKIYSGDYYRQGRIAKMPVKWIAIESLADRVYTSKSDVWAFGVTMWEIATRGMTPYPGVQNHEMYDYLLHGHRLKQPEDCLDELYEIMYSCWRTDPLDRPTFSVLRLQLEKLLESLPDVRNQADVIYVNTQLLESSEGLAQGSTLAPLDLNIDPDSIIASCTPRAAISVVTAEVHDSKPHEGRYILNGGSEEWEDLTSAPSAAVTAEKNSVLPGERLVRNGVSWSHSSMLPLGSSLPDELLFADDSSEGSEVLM
The assay can be described thus: HTRF kinase activity biochemical assay, MER. The conditions noted are these: 10 μM ATP, 30 minutes pre-incubation; read-out: HTRF MERTK IC50.

A value given as a limit tells only on which side of the number the result lay.

The term IC50 denotes the concentration at which inhibition is half-maximal. Consider `Cn1cc(-c2cnc(N)c(C(=O)N[C@H]3CCC[C@@H]3OCc3ccc(-c4ccc5c(c4)CC[C@H]5N4CCN(CC(O)CO)CC4)cc3)c2)cn1` (stereo partly drawn) [Example 101, 2-amino-N-{(1S,2S)-2-[(4-{(1R)-1-[4-(2,3-dihydroxypropyl)piperazin-1-yl]-2,3-dihydro-1H-inden-5-yl}phenyl)methoxy]cyclopentyl}-5-(1-methyl-1H-pyrazol-4-yl)pyridine-3-carboxamide], for which the IC50 is more than 1000 nM in assay [1], 10 to 100 nM in assay [2] and 10 to 100 nM in assay [3].

In the case of `CC1(C)CN(C2CCN(CCO)CC2)c2ccc(-c3ccc(CO[C@H]4CCC[C@@H]4NC(=O)c4cc(-c5ccc(F)nc5)cnc4N)cc3)cc21` [Example 31, 6-amino-6′-fluoro-N-{(1S,2S)-2-[(4-{1-[1-(2-hydroxyethyl)piperidin-4-yl]-3,3-dimethyl-2,3-dihydro-1H-indol-5-yl}phenyl)methoxy]cyclopentyl}[3,3′-bipyridine]-5-carboxamide], the IC50 in assay [1] is 10 to 100 nM; in assay [2], less than 10 nM; in assay [3] it was less than 10 nM.

Take `Cn1cc(-c2cnc(N)c(C(=O)N[C@H]3CCC[C@@H]3OCc3ccc(-c4ccc5[nH]ccc5c4)cc3)c2)cn1` [Example 68, 2-amino-N-[(1S,2S)-2-{[4-(1H-indol-5-yl)phenyl]methoxy}cyclopentyl]-5-(1-methyl-1H-pyrazol-4-yl)pyridine-3-carboxamide]: the IC50 is 100 to 1000 nM in assay [1], less than 10 nM in assay [2] and less than 10 nM in assay [3].

Take `CN1CCN([C@H]2CCc3cc(-c4ccc(CO[C@H]5CCC[C@@H]5NC(=O)c5cc(C(F)(F)F)cnc5N)cc4)ccc32)CC1` [Example 143, 2-amino-N-[(1S,2S)-2-({4-[(1S)-1-(4-methylpiperazin-1-yl)-2,3-dihydro-1H-inden-5-yl]phenyl}methoxy)cyclopentyl]-5-(trifluoromethyl)pyridine-3-carboxamide]: the IC50 is 100 to 1000 nM in assay [1], less than 10 nM in assay [2] and less than 10 nM in assay [3].

`Cn1cc(-c2cnc(N)c(C(=O)N[C@H]3CCC[C@@H]3OCc3ccc(-c4ccc5c(c4)C(C)(C)CCN5C4CCN(CCO)CC4)cc3)c2)cn1` [Example 114, 2-amino-N-{(1S,2S)-2-[(4-{1-[1-(2-hydroxyethyl)piperidin-4-yl]-4,4-dimethyl-1,2,3,4-tetrahydroquinolin-6-yl}phenyl)methoxy]cyclopentyl}-5-(1-methyl-1H-pyrazol-4-yl)pyridine-3-carboxamide]: the IC50 in assay [1] is 10 to 100 nM; in assay [2], less than 10 nM; in assay [3], less than 10 nM.

Turning to `Cn1cc(-c2cnc(N)c(C(=O)N[C@H]3COC[C@@H]3OCc3ccc(-c4ccc5c(c4)CCC5N4CCN(CCO)CC4)cc3)c2)cn1` (stereo partly drawn) [Example 18, 2-amino-N-{(3S,4R)-4-[(4-{1-[4-(2-hydroxyethyl)piperazin-1-yl]-2,3-dihydro-1H-inden-5-yl}phenyl)methoxy]oxolan-3-yl}-5-(1-methyl-1H-pyrazol-4-yl)pyridine-3-carboxamide], the values for the IC50 in assay [1], in assay [2] and in assay [3] were 100 to 1000 nM, 10 to 100 nM and less than 10 nM, respectively.

On to `Nc1ncc(C(F)(F)F)cc1C(=O)N[C@H]1CCC[C@@H]1OCc1ccc(-c2ccc3c(c2)CCCC3N2CCN(CCO)CC2)cc1` (stereo partly drawn) [Example 124, 2-amino-N-{(1S,2S)-2-[(4-{5-[4-(2-hydroxyethyl)piperazin-1-yl]-5,6,7,8-tetrahydronaphthalen-2-yl}phenyl)methoxy]cyclopentyl}-5-(trifluoromethyl)pyridine-3-carboxamide], for which the half-inhibitory concentration (IC50) in assay [1] is 100 to 1000 nM; in assay [2], less than 10 nM; in assay [3], less than 10 nM.

For `N#Cc1ccc(-c2cnc(N)c(C(=O)N[C@H]3CCC[C@@H]3OCc3ccc(-c4ccc5c(c4)CC[C@@H]5N4CCN(CCO)CC4)cc3)c2)cn1` [Example 153, 6-amino-6′-cyano-N-{(1S,2S)-2-[(4-{(1S)-1-[4-(2-hydroxyethyl)piperazin-1-yl]-2,3-dihydro-1H-inden-5-yl}phenyl)methoxy]cyclopentyl}[3,3′-bipyridine]-5-carboxamide], the IC50 in assay [1] is 100 to 1000 nM; in assay [2] it was less than 10 nM; in assay [3], less than 10 nM.

Regarding `COc1ccnc(N)c1C(=O)N[C@H]1CCC[C@@H]1OCc1ccc(-c2ccc3c(c2)C(C)(C)CC3N2CCN(CCO)CC2)cc1` (stereo partly drawn) [Example 136, 2-amino-N-{(1S,2S)-2-[(4-{1-[4-(2-hydroxyethyl)piperazin-1-yl]-3,3-dimethyl-2,3-dihydro-1H-inden-5-yl}phenyl)methoxy]cyclopentyl}-4-methoxypyridine-3-carboxamide], the IC50 in assay [1] was 100 to 1000 nM; in assay [2], less than 10 nM; in assay [3], less than 10 nM.

As for `CN(C)CCC(=O)N1Cc2ccc(-c3ccc(CO[C@H]4CCC[C@@H]4NC(=O)c4cc(-c5cnn(C)c5)cnc4N)cc3)cc2C1` [Example 1, 2-amino-N-{(1S,2S)-2-[(4-{2-[3-(dimethylamino)propanoyl]-2,3-dihydro-1H-isoindol-5-yl}phenyl)methoxy]cyclopentyl}-5-(1-methyl-1H-pyrazol-4-yl)pyridine-3-carboxamide], the results for the IC50 in assay [1], in assay [2] and in assay [3] were more than 1000 nM, more than 1000 nM and 100 to 1000 nM, respectively.

`Cn1cc(-c2cnc(N)c(C(=O)N[C@H]3C[C@H](O)C[C@@H]3OCc3ccc(-c4ccc5c(c4)C(C)(C)CN5C4CCN(CCO)CC4)cc3)c2)cn1` (relative stereo) [Example 38, rel-2-amino-N-{(1S,2S,4S)-4-hydroxy-2-[(4-{1-[1-(2-hydroxyethyl)piperidin-4-yl]-3,3-dimethyl-2,3-dihydro-1H-indol-5-yl}phenyl)methoxy]cyclopentyl}-5-(1-methyl-1H-pyrazol-4-yl)pyridine-3-carboxamide]: the figures for the IC50 in assay [1], in assay [2] and in assay [3] were 10 to 100 nM, less than 10 nM and less than 10 nM, respectively.

Consider `Cc1[nH]c2ccc(-c3ccc(CO[C@H]4CCC[C@@H]4NC(=O)c4cc(-c5cnn(C)c5)cnc4N)cc3)cc2c1C` [Example 55, 2-amino-N-[(1S,2S)-2-{[4-(2,3-dimethyl-1H-indol-5-yl)phenyl]methoxy}cyclopentyl]-5-(1-methyl-1H-pyrazol-4-yl)pyridine-3-carboxamide], for which the IC50 in assay [1] was more than 1000 nM; in assay [2], 10 to 100 nM; in assay [3] it was 10 to 100 nM.

As for `Cc1ncc(-c2cnc(N)c(C(=O)N[C@H]3CCC[C@@H]3OCc3ccc(-c4ccc5c(c4)CC[C@@H]5N4CCN(CCO)CC4)cc3)c2)s1` [Example 172, 2-amino-N-{(1S,2S)-2-[(4-{(1S)-1-[4-(2-hydroxyethyl)piperazin-1-yl]-2,3-dihydro-1H-inden-5-yl}phenyl)methoxy]cyclopentyl}-5-(2-methyl-1,3-thiazol-5-yl)pyridine-3-carboxamide], the IC50 in assay [1] was 10 to 100 nM; in assay [2], less than 10 nM; in assay [3] it was less than 10 nM.

As to `Cn1cc(-c2cnc(N)c(C(=O)N[C@H]3CCC[C@@H]3OCc3ccc(-c4ccc5c(N6CCN(CCO)CC6)coc5c4)cc3)c2)cn1` [Example 95, 2-amino-N-{(1S,2S)-2-[(4-{3-[4-(2-hydroxyethyl)piperazin-1-yl]-1-benzofuran-6-yl}phenyl)methoxy]cyclopentyl}-5-(1-methyl-1H-pyrazol-4-yl)pyridine-3-carboxamide], the results for the IC50 in assay [1], in assay [2] and in assay [3] were more than 1000 nM, 100 to 1000 nM and 10 to 100 nM, respectively.
